This is an account of results in ChEMBL document CHEMBL1201862, “PubChem BioAssay data set” (2004).

Common to all, as to assay: inhibition of tumour cell growth, NCI panel, 48 h
In assay [1] the test system is IGROV-1.
Assay [2] concerns 786-0.
In assay [3] the test system is Hs-578T.
Assay [4] has as its system EKVX.
The subject of assay [5] is SK-MEL-2.
The subject of assay [6] is SNB-19.
The subject of assay [7] is RXF 393.
In assay [8] the test system is UACC-62.
The subject of assay [9] is DU-145.
The subject of assay [10] is MCF7.
In assay [11] the test system is NCI/ADR-RES.
The subject of assay [12] is A549.
Assay [13] concerns LOX IMVI.
Assay [14] deals with KM12.
The test system of assay [15] is SK-MEL-5.
Assay [16] has as its system SK-OV-3.
The subject of assay [17] is SR.
Assay [18] has as its system OVCAR-5.
Assay [19] has as its system T47D.
Assay [20] deals with HL-60.

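Cells were grown in 96-well plates and exposed to each compound for 48 hours at five concentrations; endpoints were interpolated linearly between bracketing concentrations, or set to the highest concentration if not reached. The concentration for 50% growth inhibition is given as GI50.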 Activity calls are given as the source filed them. Rule as the data show it: active = GI50 up to about 1.1 µM and inactive = higher. A value given as a limit tells only on which side of the number the result lay.

On to `Nc1ccc(-c2nc3ccc(F)cc3s2)cc1Cl`, for which the GI50 in assay [1] is < 0.01 µM (active); in assay [2], > 61.1 µM (inactive); in assay [3] it was 32.9 µM (inactive); in [4], > 61.9 µM (inactive); in assay [5] it was > 84.1 µM (inactive); in [6], > 62.2 µM (inactive). The GI50 was > 41.5 µM (inactive) in assay [7]; > 69.8 µM (inactive) in [8]; > 100 µM (inactive) in assay [9]; < 0.01 µM (active) in [10]; > 100 µM (inactive) in assay [11]; > 100 µM (inactive) in assay [12]. Also, the GI50 in [13] was > 73.1 µM (inactive); in assay [14], > 100 µM (inactive); in assay [15], > 100 µM (inactive); in assay [16] it was > 100 µM (inactive); in assay [17] it was > 100 µM (inactive).
Consider `OC1[C@@H]2[C@@H](O)[C@H](O)[C@@H](O)N2C[C@@H]1O` (stereo partly specified), for which the GI50 in assay [1], in [2], in assay [3], in assay [4], in [5] and in [6] was > 100 µM (inactive) each time. The GI50 in [7], in assay [8], in assay [9], in assay [10], in assay [11] and in assay [18] was > 100 µM (inactive) each time. Further, the GI50 in assay [12], in assay [19], in [13], in assay [14], in [15] and in assay [16] was > 100 µM (inactive) in each case.
For the molecule `O=C1OC2C=CCC1C2` (stereo unspecified), the GI50 in [1], in assay [2], in assay [3], in [4], in [5] and in [6] was > 100 µM (inactive) throughout. Also, the GI50 in assay [8], in assay [9], in assay [10], in assay [11], in assay [18] and in assay [12] was > 100 µM (inactive) throughout. In addition, the GI50 in [19], in [13], in [14], in assay [20], in assay [15] and in assay [16] was > 100 µM (inactive) in each case. Also, the GI50 in [17] was > 100 µM (inactive).
Consider `O=P(c1ccccc1)(c1ccccc1)c1ccc2c(c1)OCCOCCOCCOCCO2`, for which the GI50 in assay [1], in assay [2], in assay [3], in [4], in assay [6] and in assay [8] was > 100 µM (inactive) in each case. In addition, the GI50 in assay [9], in assay [10], in [12], in [19], in [13] and in [14] was > 100 µM (inactive) throughout. In addition, the GI50 in assay [20], in assay [15], in assay [16] and in assay [17] was > 100 µM (inactive) throughout.
With `Oc1c(Br)cc(/C=C/c2ccnc(/C=C/c3cc(Br)c(O)c(Br)c3)c2)cc1Br`, the GI50 in [1] is 32.4 µM (inactive); in assay [2], 18.2 µM (inactive); in [3] it was 54.2 µM (inactive); in assay [4] it was 25.4 µM (inactive); in assay [5], 14.9 µM (inactive); in assay [6] it was 35.8 µM (inactive). In addition, the GI50 was 24.3 µM (inactive) in assay [8]; 20.4 µM (inactive) in assay [9]; 24.2 µM (inactive) in assay [10]; 31.6 µM (inactive) in assay [11]; 25.5 µM (inactive) in assay [18]; 23.6 µM (inactive) in [12]. For the same molecule, the GI50 in assay [19] was 16.7 µM (inactive); in [13] it was 29.2 µM (inactive); in assay [14] it was 19.1 µM (inactive); in [20], 14.5 µM (inactive); in assay [15] it was 19.1 µM (inactive); in assay [16], 34.2 µM (inactive). The GI50 in assay [17] was 17.8 µM (inactive).
Consider `CCCCCCCN1C(=O)C(O)(c2ccc(C3(O)C(=O)N(CCCCCCC)c4ccccc43)s2)c2ccccc21` (stereo unspecified), for which the GI50 in assay [1] was 2.35 µM (inactive); in assay [2], 1.91 µM (inactive); in assay [3] it was 2.79 µM (inactive); in assay [5] it was 1.47 µM (inactive); in assay [6], 2.81 µM (inactive); in assay [8], 2.12 µM (inactive). For the same molecule, the GI50 in assay [9] is 1.65 µM (inactive); in assay [10], 2.21 µM (inactive); in assay [18], 1.68 µM (inactive); in assay [19], 4.39 µM (inactive); in [13], 1.96 µM (inactive); in assay [14], 1.8 µM (inactive). The GI50 in assay [20] is 1.56 µM (inactive); in assay [15] it was 1.79 µM (inactive); in assay [16] it was 0.753 µM (active); in assay [17], 4.83 µM (inactive).
Turning to `CCOC(=O)C1=c2[nH]c3cccc4cccc(c43)n2C=C(C(C)=O)C1CC(C)=O` (stereo unspecified), the GI50 in [1] was > 100 µM (inactive); in assay [2], 40.4 µM (inactive); in [4] it was > 100 µM (inactive); in assay [5], > 100 µM (inactive); in assay [6] it was 55.2 µM (inactive); in assay [7] it was 56.1 µM (inactive). Moreover, the GI50 in assay [8] was > 100 µM (inactive); in [9] it was > 100 µM (inactive); in assay [10], 94.2 µM (inactive); in assay [11] it was > 100 µM (inactive); in assay [18] it was > 100 µM (inactive); in assay [12] it was 46.2 µM (inactive). The GI50 in [19] was 34 µM (inactive); in assay [13] it was 43.2 µM (inactive); in assay [14], > 100 µM (inactive); in [20], 12.3 µM (inactive); in assay [15], > 100 µM (inactive); in [16], 6.4 µM (inactive). In addition, the GI50 in [17] is > 100 µM (inactive).
With `O=c1c2nc3ccccc3c(=O)n2ncn1-c1ccccc1Cl`, the GI50 in [1], in assay [2], in assay [3], in assay [4], in assay [5] and in assay [6] was > 100 µM (inactive) throughout. In addition, the GI50 in assay [8], in assay [9], in assay [10], in [18], in [12] and in assay [19] was > 100 µM (inactive) each time. For the same molecule, the GI50 in assay [13], in assay [14], in assay [20], in [15], in assay [16] and in [17] was > 100 µM (inactive) each time.
Regarding `Cc1occc1/C(S)=N\c1ccc(Cl)c(C(=O)OCC2CC2)c1`, the GI50 in assay [1] is 37.3 µM (inactive); in assay [2] it was 44.9 µM (inactive); in assay [3], 46.9 µM (inactive); in assay [4], 35 µM (inactive); in [5], 47.4 µM (inactive); in assay [6] it was 54.2 µM (inactive). For the same molecule, the GI50 in assay [8] is 31.3 µM (inactive); in [9] it was 73.3 µM (inactive); in assay [10], 38.5 µM (inactive); in assay [11] it was 33.3 µM (inactive); in assay [18], > 100 µM (inactive); in assay [12], > 100 µM (inactive). The GI50 in assay [19] is 35 µM (inactive); in assay [13], 29.2 µM (inactive); in [14], 32.3 µM (inactive); in assay [20], 28.4 µM (inactive); in [15], 41.2 µM (inactive); in [16], 35.6 µM (inactive).
As to `COc1ccc(Oc2nc3ccc(C(F)(F)F)cc3nc2-c2ccccc2)cc1`, the GI50 in assay [1], in assay [2], in [3], in assay [4], in assay [5] and in [6] was > 100 µM (inactive) each time. Moreover, the GI50 is 50.5 µM (inactive) in assay [7]; > 100 µM (inactive) in [8]; > 100 µM (inactive) in assay [9]; 65.5 µM (inactive) in assay [10]; > 100 µM (inactive) in assay [18]; > 100 µM (inactive) in [13]. For the same molecule, the GI50 in [14] was > 100 µM (inactive); in [20] it was 42 µM (inactive); in [15], > 100 µM (inactive); in [16], > 100 µM (inactive); in [17], 13.1 µM (inactive).
Regarding `Cc1nc2c(=O)n3c4c(cccc4c2o1)CCC3`, the GI50 in [1] is 76.6 µM (inactive); in assay [2], > 100 µM (inactive); in assay [3] it was > 100 µM (inactive); in assay [4], 76.6 µM (inactive); in assay [5], > 100 µM (inactive); in assay [6], > 100 µM (inactive). Besides, the GI50 in assay [7], in assay [8], in [9], in [10], in assay [11] and in assay [18] was > 100 µM (inactive) throughout. Moreover, the GI50 in assay [12], in [19], in [13], in assay [14], in [20] and in assay [15] was > 100 µM (inactive) each time. Also, the GI50 in assay [16] was > 100 µM (inactive).
